According to patent US9353075B2, “Disubstituted beta-lactones as inhibitors of N-acylethanolamine acid amidase (NAAA)” (The Regents of the University of California, priority 2011, dated 2016):
pIC50: −log10 of the molar value.

How the values were obtained:
r-NAAA = r-NAAA (Rattus norvegicus (Rat), UniProt Q5KTC7); experiment: r-NAAA inhibition, rat lung lysosomal NAAA preparation, UPLC/MS; type: biochemical
In short: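 Enzyme was a lysosomal fraction from male Sprague-Dawley rat lung, preincubated with compound 30 min at 37 °C in NaH2PO4/citrate pH 4.5, 1% Triton-X, 3 mM DTT. Heptadecenoylethanolamide (50 μM) was hydrolysed 30 min at 37 °C. Heptadecenoic acid was quantified by UPLC/MS against vehicle, and IC50 fitted by non-linear regression.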

[1] = Chemical stability in PBS buffer pH 7.4; type: physicochemical; conditions: phosphate-buffered saline, 0.01M PBS pH 7.4, 37° C., read-out: Stability in PBS buffer, pH 7.4 t1/2
Description: Chemical stability of select compounds was evaluated under physiological pH conditions (0.01M Phosphate-Buffered Saline, pH 7.4) for up to 24 h. Stock solutions of each compound (10 mM) were prepared freshly in DMSO. Each compound was incubated at a final concentration of 10 μM (1% DMSO) in pre-heated buffer (0.01M Phosphate-Buffered Saline (PBS), pH 7.4 at 37° C.). The sample solutions were divided into aliquots in glass vials (pre-heated at 37° C.) for each time point. The samples were maintained at 37° C. in the UPLC/MS Autosampler during the study (no shaking). A reference solution of each compound (final concentration: 10 μM at 1% DMSO) in pre-heated CH3CN (37° C.) was prepared from the stock solutions (10 mM in DMSO). The reference solutions were maintained at 37° C. in the UPLC/MS Autosampler during the study (no shaking). An internal standard (100 nM) was added to the sample and reference solutions. For each time point, the samples were analyzed directly by LC/MS without any further sample preparation. The samples were analyzed (triplicate injection) by monitoring the MS trace by Multiple Reaction Monitoring (MRM). The compound concentration (expressed as %) was calculated by dividing the peak area at each time point by the peak area at t=0 min. The reference solution was analyzed at the beginning (t=0 min.), and at the end of the study (t=24 h). The apparent half-lives (t1/2) of the disappearance of compound were calculated by a one-phase decay equation using a non-linear regression of compound concentration versus time.
The analyses were performed on a Waters ACQUITY UPLC/MS TQD system consisting of a TQD (Triple Quadropole Detector) Mass Spectrometer equipped with an Electrospray Ionization interface and a Photodiode Array Detector. The analyses were run on an ACQUITY UPLC BEH C18 1.7 μm 2.1×50 mm column with a VanGuard BEH C18 1.7 μm pre-column at 40° C. The mobile phase was 0.1% HCOOH in H2O (A) and 0.1% HCOOH in CH3CN (B) using a linear gradient: 0-0.2 min.: 5% B, 0.2-2.2 min.: 5-95% B, 2.2-2.3 min.: 95-5% B, 2.3-3 min.: 5% B with flow rate at 0.5 mL/min. […]

Acid Ceramidase (AC) = Acid Ceramidase (AC) (Rattus norvegicus (Rat), UniProt Q6P7S1); experiment: Acid ceramidase inhibition, recombinant rat AC, LC-MS; type: biochemical; conditions: read-out: r-AC % inhib. @ 10 μM
Chain of Acid Ceramidase (AC) (Q6P7S1 21-394): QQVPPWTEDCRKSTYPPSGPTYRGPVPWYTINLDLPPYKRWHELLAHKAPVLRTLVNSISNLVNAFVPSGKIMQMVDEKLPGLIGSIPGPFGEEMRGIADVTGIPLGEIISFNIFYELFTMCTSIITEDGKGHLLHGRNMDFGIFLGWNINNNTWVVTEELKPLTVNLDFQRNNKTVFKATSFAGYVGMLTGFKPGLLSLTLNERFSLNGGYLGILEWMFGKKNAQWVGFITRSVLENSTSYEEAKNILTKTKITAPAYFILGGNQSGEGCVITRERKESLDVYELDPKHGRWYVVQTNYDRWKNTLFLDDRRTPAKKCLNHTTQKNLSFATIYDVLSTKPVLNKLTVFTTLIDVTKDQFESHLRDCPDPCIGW
Description: The PCR (High Fidelity PCR Master, Roche) product was subcloned into a pEF6-[…] vector (Invitrogen) to construct a mammalian expression vector encoding […]-tagged rat AC. HEK293 cells were transfected with pEF6-rAC-[…] using Super-Fect reagent (Qiagen) and screened with G418 (0.3 mg/mL). Cells were suspended in 20 mM Tris HCl (pH 7.5) containing 0.32M sucrose, sonicated and centrifuged at 800×g for 15 minutes at 4° C. The supernatants were centrifuged again at 12,000×g for 30 minutes at 4° C. The pellets were suspended in phosphate-buffered saline (PBS) and subjected to 2 freeze-thaw cycles at -80° C. The suspensions were centrifuged at 105,000×g for 1 hour at 4° C. The supernatants containing recombinant AC were kept at -80° C. until use. Protein concentration was measured using the bicinchoninic acid (BCA) assay (Pierce). […] Reactions were stopped by addition of a mixture of chloroform/methanol (2:1, vol/vol) containing 1 nmol of heptadecanoic acid (HDA; NuChek Prep). […] HDA was eluted on an XDB Eclipse C18 column isocratically at 2.2 mL/min for 1 minute with a solvent mixture of 95% methanol and 5% water, both containing 0.25% acetic acid and 5 mM ammonium acetate. The column temperature was 50° C. Electrospray ionization (ESI) was in the negative mode, capillary voltage as 4 kV, and fragmentor voltage was 100 V. N2 was used as drying gas at a flow rate of 13 L/min and a temperature of 350° C. Nebulizer pressure was set at 60 psi. We monitored [M-H]- in the selected-ion monitoring (SIM) mode using HDA as internal standard. Calibration curves were generated using commercial lauric acid (Nu-Chek Prep; m/z=199).

Chain of r-NAAA (Q5KTC7 34-362): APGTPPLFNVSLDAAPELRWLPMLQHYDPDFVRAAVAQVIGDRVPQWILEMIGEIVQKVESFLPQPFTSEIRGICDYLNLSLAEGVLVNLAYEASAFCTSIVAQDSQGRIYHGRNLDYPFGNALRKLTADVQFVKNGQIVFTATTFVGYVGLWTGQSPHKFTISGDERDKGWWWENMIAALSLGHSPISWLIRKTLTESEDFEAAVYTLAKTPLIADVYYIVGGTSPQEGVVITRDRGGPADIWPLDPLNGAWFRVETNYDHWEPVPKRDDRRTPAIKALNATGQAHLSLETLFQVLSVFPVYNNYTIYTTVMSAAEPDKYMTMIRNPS

pIC50 (r-NAAA): 6.27 | half-life at 10 μM [1]: 1.05 h | inhibition at 10 µM (Acid Ceramidase (AC)): < 10%
Structure (SMILES): C[C@@H]1OC(=O)[C@@H]1NC(=O)CCCCCCc1ccccc1 [corresponding amide analog, reference compound]
